Measurements: paper PMC11339918, “Extracellular Domain of IL-10 Receptor Chain-2 (IL-10R2) and Its Arginine-Containing Peptides Are Susceptible Substrates for Human Prostate Kallikrein-2 (KLK2)” (Biochemistry, 2024)
*: point of attachment. EDDnp = O=[N+]([O-])c1ccc(NCCN*)c([N+](=O)[O-])c1

Columns and labels:
[1] = system: KLK2; assay: Effects of salts and glycosaminoglycans on KLK2 hydrolysis of Abz-KLRSSKQ-EDDnp; format: biochemical, human; conditions: 20 mM Tris–HCl, 1 mM EDTA, 5.0 μM Abz-KLRSSKQ-EDDnp, [E] = 1.58 nM, 37 °C, pH 8.0
Method: Bovine lung heparin was prepared as previously reported;[16] dermatan sulfate (12 000 Da) and chondroitin sulfate (25 000 Da) were purchased from Seikagaku Kogyo Co. (Tokyo, Japan), and heparan sulfate (16 000 Da) from the bovine lung was a generous gift from Dr. P. Bianchini (Opocrin Research Laboratories, Modena, Italy).
Figure 1 KLK2 hydrolysis of Abz-KLRSSKQ-EDDnp. (A) Effects of sodium citrate, sodium sulfate, and sodium chloride on the FRET-peptide hydrolysis by KLK2. (B) pH profile for the KLK2 activity. (C) Effects of glycosaminoglycans on KLK2 activity. Assays were carried out in 20 mM Tris–HCl, 1 mM EDTA, and 5.0 μM substrate; [E] = 1.58 nM at 37 °C and pH 8.0 for experiments in (A and C).

[2] = system: KLK3; assay: Hydrolysis by KLK3 of IL-10R2-derived FRET peptides containing F or Y; format: biochemical, human; conditions: 2 nM KLK3, 20 mM Tris-HCl, 1 mM EDTA, 1.5 M sodium citrate, pH 7.8, 37 °C
Description: Obtained from a baculovirus-insect cell line system, purified, and activated as previously reported,[14] MUGB (4-methylumbelliferyl p-guanidino benzoate hydrochloride) was used for the spectrofluorimetric determination of molar concentrations of active KLK2.[15] KLK3 was obtained and assayed as previously reported.[3] […]
FRET Peptides with F FRET Peptides with Y
Abz-MNSVNFKNIL-Q-E DD np Abz-FTAQYLSYR-Q-EDD np
Abz-WESPAFAKGN-Q-EDD np Abz – AQYL SYRIF-Q-EDDnp
Abz-KGNLTFT AQY-Q-EDDnp Abz-SSLSKYGDHT-Q-EDD np
Abz-LSYRIFQDKA-Q-EDD np Abz-KIENEYET WT-Q-EDDnp
Abz-LTEADFSSLS-Q-EDD np Abz-TMKNVYNSWT-Q-ED Dnp
Abz-RVRAEFADEH-Q-EDDnp Abz-NSWTYNVQ-Q-EDDnp
Abz-HSDWVNITFAPVD-Q-EDDnp Abz-NVQYWKNG-Q-EDDnp
Abz-SLHMRFL AP K-Q-EDD np Abz-QITPQYDFEV-Q-EDD np
Abz-GTDEKFQ IT P-Q-EDD np Abz – EPWTTYAVQR-Q-EDD np
Conditions of reactions: 2 nM KLK3, 20 mM Tris -HCl, 1 mM EDTA, 1.5 M sodium citrate, pH 7.8, at 37 °C.
The sequence o f FRET peptide with F or Y in the middle of the sequence can be identiﬁed in the IL-
10R2 ectodomain sequence around F or Y, as shown b e l o w. Cysteines were substituted by Alanine (A)
1 MAWSLGSWLGGCLLVSALGMVPPPENVRMNSVNFKNILQWESPAFAKGNLTFTAQYLSYR.
61 IFQDKCMNTTLTECDFSSLSKYGDHTLRVRAEFADEHSDWVNITFCPVDDTIIGPPGMQV.
121 EVL ADSLHMR FL APKIENEY ET W TMKNVYN SWTYNVQYWK NGTDEKFQIT PQYDFEVLRN.
181 LEPW TTYCVQ VRGF LPDRNK AGEWSEPVCE QTTHDETVPS.

[3] = system: BMDM cells; assay: BMDM activation with LPS/IFN-γ: NO, TNF-α and IL-12 p40 in supernatant; format: cell-based, C57Bl/6 mice; conditions: 72 h, Griess, ELISA; for IL-10 inhibition of NO, TNF-α and IL-12 p40 generation in pretreated BMDM: pretreatment 7.5 μg/mL for 2 h, then LPS 200 ng/mL / IFN-γ 100 U/mL ± IL-10 10 ng/mL
Method: BMDM were obtained from C57Bl/6 mice and used as previously reported.[17]
For BMDM activation assays in vitro, cells were plated at a density of 10^5 cells/mL in 96-well plates at 37 °C in the absence and presence of KLK2 or KLK3 (7.5 μg/mL) for 2 h. The cells were then washed with PBS and treated with LPS (200 ng/mL)/IFN-γ (100 U/mL) stimuli in the presence or absence of recombinant IL-10 (10 ng/mL). The activation response of BMDM cells was evaluated after 72 h by quantification of nitric oxide (NO), TNF-α, and IL-12 p40 in the supernatant of BMDM cell cultures. NO was quantified using the Griess assay,[19] and the cytokines TNF-α and IL-12 p40 were quantified using sandwich enzyme-linked immunosorbent assay (ELISA) kits (B.D. Biosciences) following the manufacturer’s instructions.
Figure 3 KLK2 converts BMDM cells to a pro-inflammatory status characterized by maintaining NO, TNF-α, and IL-12p40 levels, even in the presence of recombinant IL-10. BMDM cells from C57Bl/6 mice were incubated in a 96-well plate (1 × 10^5 cells) with KLK2 (7.5 μg/mL) or KLK3 (7.5 μg/mL) for 2 h. After this, cells were washed and incubated with or without lipopolysaccharide (LPS) (200 ng/mL), IFN-γ (IFN), and recombinant IL-10 (IL10). (A) NO quantified in the culture supernatant by the Griess method. (B) TNF-α and (C) IL-12 p40 cytokines were quantified by ELISA in culture supernatants. MΦ = control macrophages. * p-value <0.001, analyzed by ANOVA with Tukey’s multiple comparisons.

## O=C([O-])CC(O)(CC(=O)[O-])C(=O)[O-].[Na+].[Na+].[Na+] [sodium citrate]
[1]
  effect of salt on KLK2 activity: ten times more efficient activator of KLK2 than sodium sulfate

## Abz-RVRAEFADEH-Q-EDDnp [FRET peptide with F derived from IL-10R2 ectodomain]
[2]
  hydrolysis by KLK3 (in words): resistant to hydrolysis by KLK3

## Abz-SLHMRFL AP K-Q-EDD np [Abz-SLHMRFLAPK-Q-EDDnp, FRET peptide with F derived from IL-10R2 ectodomain]
[2]
  hydrolysis by KLK3 (in words): resistant to hydrolysis by KLK3

## Abz-SSLSKYGDHT-Q-EDD np [Abz-SSLSKYGDHT-Q-EDDnp, FRET peptide with Y derived from IL-10R2 ectodomain]
[2]
  hydrolysis by KLK3 (in words): resistant to hydrolysis by KLK3

## Abz-T P QYDFEVLR-Q-EDDnp [Abz-TPQYDFEVLR-Q-EDDnp, FRET peptide with F derived from IL-10R2 ectodomain]
[2]
  hydrolysis by KLK3 (in words): resistant to hydrolysis by KLK3

## Abz-TMKNVYNSWT-Q-ED Dnp [Abz-TMKNVYNSWT-Q-EDDnp, FRET peptide with Y derived from IL-10R2 ectodomain]
[2]
  hydrolysis by KLK3 (in words): resistant to hydrolysis by KLK3

## Abz-VQVRGFLPDR-Q-EDD np [Abz-VQVRGFLPDR-Q-EDDnp, FRET peptide with F derived from IL-10R2 ectodomain]
[2]
  hydrolysis by KLK3 (in words): resistant to hydrolysis by KLK3

## Abz-WESPAFAKGN-Q-EDD np (Abz-WESPAFAKGNQ-EDDnp) [Abz-WESPAFAKGN-Q-EDDnp, FRET peptide with F derived from IL-10R2 ectodomain]
[2]
  hydrolysis by KLK3 (in words): resistant to hydrolysis by KLK3

## KLK2: human prostate kallikrein-2, recombinant, from a baculovirus-insect cell line system
[3]
  IL-10 inhibition of NO, TNF-α and IL-12 p40 generation in pretreated BMDM: these IL-10 inhibitory effects were not observed

## KLK3: human kallikrein-related peptidase 3 (PSA—prostatic-specific antigen)
[3]
  IL-10 inhibition of NO, TNF-α and IL-12 p40 generation in pretreated BMDM: did not show these effects

## chondroitin sulfate
[1]
  effect of glycosaminoglycan on KLK2 activity: inhibitory

## dermatan sulfate
[1]
  effect of glycosaminoglycan on KLK2 activity: activate KLK2 in sub- and micromolar concentrations, respectively

## heparan sulfate
[1]
  effect of glycosaminoglycan on KLK2 activity: activate KLK2 in sub- and micromolar concentrations, respectively

## heparin
[1]
  effect of glycosaminoglycan on KLK2 activity: almost no effect

B1: recombinant IL-10: recombinant IL-10 (10 ng/mL) used in BMDM activation assay (protein, UniProt P18893 19-178, looked up)
Interleukin-10: SRGQYSREDNNCTHFPVGQSHMLLELRTAFSQVKTFFQTKDQLDNILLTDSLMQDFKGYLGCQALSEMIQFYLVEVMPQAEKHGPEIKEHLNSLGEKLKTLRMRLRRCHRFLPCENKSKAVEQVKSDFNKLQDQGVYKAMNEFDIFINCIEAYMMIKMKS
[3]; IL-10 10 ng/mL, LPS 200 ng/mL / IFN-γ 100 U/mL
  generation of NO, TNF-α and IL-12 p40 in LPS/IFN-γ activated BMDM: reduced the generation of NO, TNF-α, and IL-12 p40
